{"source": "ChEMBL document CHEMBL4823282", "about": "“Novel Broad-Spectrum Antimicrobial Peptide Derived from Anoplin and Its Activity on Bacterial Pneumonia in Mice” (J Med Chem, 2021)", "key": {"[1]": {"tested_on": "Erythrocyte", "test": "Hemolytic activity in BALB/C mouse erythrocytes incubated for 1 hr by absorbance method", "type": "ADME, cell-based"}, "[2]": {"tested_on": "Escherichia coli", "test": "Antibacterial activity against Escherichia coli ATCC 25922 incubated for 18 hrs by CLSI based broth dilution method", "type": "functional"}, "[3]": {"tested_on": "Klebsiella pneumoniae", "test": "Antibiofilm activity against Klebsiella pneumoniae ATCC 700603 at 2 to 4 times MIC incubated for 24 hrs by crystal violet staining based assay", "type": "functional, organism-based"}, "[4]": {"tested_on": "Staphylococcus aureus", "test": "Antibacterial activity against Staphylococcus aureus ATCC 25923 incubated with 0.2 to 0.02 ug/ml trypsin for 6 hrs followed by bacterial addition and measured after 18 hrs by CLSI based broth dilution method", "type": "functional, organism-based", "settings": "dose 0.2-0.02 µg/ml, time 23.0 hrs"}, "[5]": {"tested_on": "Pseudomonas aeruginosa", "test": "Synergistic antibacterial activity against Pseudomonas aeruginosa ATCC 27853 at 2 times MIC incubated for 18 to 24 hrs in presence of 2 times MIC of polymyxin B by broth microdilution assay based checkerboard assay", "type": "functional", "settings": "time 18-24 hrs"}, "[6]": {"test": "Stability in BALB/C mouse serum assessed as compound degradation time measured up to 1440 mins by HPLC analysis", "type": "ADME, cell-free", "settings": "24 h"}, "[7]": {"test": "Selectivity ratio of MHC10 for BALB/C mouse erythrocytes to MIC for fungi", "type": "toxicity"}, "[8]": {"tested_on": "Staphylococcus epidermidis", "test": "Antibacterial activity against Staphylococcus epidermidis ATCC 12228 incubated for 18 hrs by CLSI based broth dilution method", "type": "functional"}, "[9]": {"tested_on": "Staphylococcus aureus", "test": "Bactericidal activity against Staphylococcus aureus ATCC 25923 at 2MIC by time-kill assay", "type": "functional, organism-based", "settings": "time 24.0 hrs, TDE = time-dependent effect"}, "[10]": {"tested_on": "Staphylococcus aureus", "test": "Antibacterial activity against Staphylococcus aureus ATCC 25923 incubated with 0.2 to 0.02 ug/ml chymotrypsin for 6 hrs followed by bacterial addition and measured after 18 hrs by CLSI based broth dilution method", "type": "functional, organism-based", "settings": "dose 0.2-0.02 µg/ml"}, "[11]": {"tested_on": "Bacteria", "test": "Antibacterial activity against bacteria incubated for 18 hrs by CLSI based broth dilution method", "type": "functional"}, "[12]": {"tested_on": "Acinetobacter baumannii", "test": "Antibacterial activity against Acinetobacter baumannii ATCC 19606 incubated for 18 hrs by CLSI based broth dilution method", "type": "functional", "settings": "ATCC 19606 = CIP 70.34 = JCM 6841"}, "[13]": {"tested_on": "Enterococcus faecalis", "test": "Antibacterial activity against Enterococcus faecalis ATCC 29212 incubated for 18 hrs by CLSI based broth dilution method", "type": "functional"}, "[14]": {"test": "Cytotoxicity against human glomerular mesangial cells incubated for 12 hrs by MTT assay", "type": "cell-based", "settings": "Glomerular mesangial cell"}, "[15]": {"tested_on": "Klebsiella pneumoniae", "test": "Bactericidal activity against Klebsiella pneumoniae 700603 at 2MIC by time-kill assay relative to control", "type": "functional", "settings": "2M, TDE = time-dependent effect"}, "[16]": {"tested_on": "Klebsiella pneumoniae", "test": "Antibacterial activity against Klebsiella pneumoniae ATCC 700603 incubated with 0.2 to 0.02 ug/ml chymotrypsin for 6 hrs followed by bacterial addition and measured after 18 hrs by CLSI based broth dilution method", "type": "functional, organism-based", "settings": "dose 0.2-0.02 µg/ml, time 23.0 hrs"}, "[17]": {"tested_on": "Pseudomonas aeruginosa", "test": "Antibacterial activity against Pseudomonas aeruginosa ATCC 27853 incubated for 18 hrs by CLSI based broth dilution method", "type": "functional"}, "[18]": {"tested_on": "Cell membrane", "test": "Disruption of membrane integrity in Staphylococcus aureus ATCC 25923 assessed as bacterial death at 1 times MIC measured within 0.5 hrs by scanning electron microscopy", "type": "subcellular"}, "[19]": {"tested_on": "Bacillus subtilis", "test": "Antibacterial activity against Bacillus subtilis ATCC 23857 incubated for 18 hrs by CLSI based broth dilution method", "type": "functional"}, "[20]": {"tested_on": "Staphylococcus aureus", "test": "Antibacterial activity against Staphylococcus aureus ATCC 25923 incubated for 18 hrs by CLSI based broth dilution method", "type": "functional"}, "[21]": {"test": "Stability in BALB/C mouse serum measured up to 1440 mins by HPLC analysis", "type": "ADME, cell-free"}, "[22]": {"test": "Selectivity ratio of MHC10 for BALB/C mouse erythrocytes to MIC for gram-negative bacteria", "type": "toxicity"}, "[23]": {"tested_on": "Escherichia coli", "test": "Antibiofilm activity against Escherichia coli ATCC 25922 at 4 times MIC incubated for 24 hrs by crystal violet staining based assay", "type": "functional, organism-based"}, "[24]": {"tested_on": "Bacteria", "test": "Antibacterial activity against Gram-positive bacteria incubated for 18 hrs by CLSI based broth dilution method", "type": "functional"}, "[25]": {"test": "Selectivity ratio of MHC10 for BALB/C mouse erythrocytes to MIC for gram positive bacteria", "type": "toxicity"}, "[26]": {"tested_on": "Cell membrane", "test": "Induction of inner membrane permeabilization in Klebsiella pneumoniae ATCC 700603 at 0.5 to 4MIC using ONPG as substrate by spectroscopic method", "type": "subcellular", "settings": "Klebsiella pneumoniae 700603, 0.5 to 4M"}, "[27]": {"test": "Selectivity ratio of MHC10 for BALB/C mouse erythrocytes to MIC for bacteria", "type": "toxicity"}, "[28]": {"tested_on": "Staphylococcus aureus", "test": "Antibacterial activity against Staphylococcus aureus ATCC 25923 at 0.5 to 1 times MIC incubated for 24 hrs by crystal violet staining based assay", "type": "functional, organism-based"}, "[29]": {"tested_on": "Staphylococcus aureus", "test": "Disruption of bacterial cell membrane in Staphylococcus aureus ATCC 25923 assessed as increase in PI uptake incubated for 30 to 120 mins by FACS flow cytometry", "type": "functional, organism-based", "settings": "time 30-120 min"}, "[30]": {"tested_on": "Klebsiella pneumoniae", "test": "Antibacterial activity against Klebsiella pneumoniae ATCC 700603 incubated for 18 hrs by CLSI based broth dilution method", "type": "functional"}, "[31]": {"tested_on": "Staphylococcus aureus", "test": "Disruption of membrane integrity in Staphylococcus aureus ATCC 25923 assessed as membrane blebbing at 1 times MIC measured within 0.5 hrs by scanning electron microscopy", "type": "functional, organism-based"}, "[32]": {"tested_on": "Bacteria", "test": "Antibacterial activity against Gram-negative bacteria incubated for 18 hrs by CLSI based broth dilution method", "type": "functional"}, "[33]": {"tested_on": "Klebsiella pneumoniae", "test": "Antibacterial activity against Klebsiella pneumoniae ATCC 700603 incubated with 0.2 to 0.02 ug/ml trypsin for 6 hrs followed by bacterial addition and measured after 18 hrs by CLSI based broth dilution method", "type": "functional, organism-based", "settings": "dose 0.2-0.02 µg/ml, time 23.0 hrs"}, "[34]": {"tested_on": "Fungi", "test": "Antibacterial activity against fungi incubated for 18 hrs by CLSI based broth dilution method", "type": "functional"}, "[35]": {"tested_on": "Pseudomonas aeruginosa", "test": "Antibacterial activity against Pseudomonas aeruginosa ATCC 27853 at 0.5 to 4 times MIC incubated for 24 hrs by crystal violet staining based assay", "type": "functional, organism-based"}, "[36]": {"tested_on": "Cell membrane", "test": "Disruption of membrane integrity in Staphylococcus aureus ATCC 25923 assessed as membrane shrinking at 1 times MIC measured within 0.5 hrs by scanning electron microscopy", "type": "subcellular"}, "[37]": {"tested_on": "Pseudomonas aeruginosa", "test": "Antibacterial activity against Pseudomonas aeruginosa ATCC 27853 incubated for 18 hrs in presence of EDTA by CLSI based broth dilution method", "type": "functional"}, "[38]": {"tested_on": "Pseudomonas aeruginosa", "test": "Antibacterial activity against rifampin-resistant Pseudomonas aeruginosa ATCC 27853 incubated for 18 hrs in presence of EDTA by CLSI based broth dilution method", "type": "functional"}, "[39]": {"tested_on": "Pseudomonas aeruginosa", "test": "Antibacterial activity against Pseudomonas aeruginosa ATCC 27853 assessed as increase in MIC at sub-MIC level after 15 passages by broth microdilution assay", "type": "functional"}, "[40]": {"tested_on": "Pseudomonas aeruginosa", "test": "Antibacterial activity against rifampin-resistant Pseudomonas aeruginosa ATCC 27853 incubated for 18 hrs by CLSI based broth dilution method", "type": "functional"}, "[41]": {"tested_on": "Pseudomonas aeruginosa", "test": "Antibacterial activity against gentamicin-resistant Pseudomonas aeruginosa ATCC 27853 incubated for 18 hrs by CLSI based broth dilution method", "type": "functional"}}, "note": "The source made the active and inactive calls. No cut-off for these calls is given here. Where a SMILES comes first, the peptide text is derived from it."}
{"smiles": "CC[C@H](C)[C@H](NC(=O)[C@H](CCCNC(=N)N)NC(=O)[C@H](CCCCN)NC(=O)[C@H](CC(C)C)NC(=O)[C@H](CC(C)C)NC(=O)CN)C(=O)N[C@@H](CCCCN)C(=O)N[C@H](C(=O)N[C@@H](CC(C)C)C(=O)N[C@@H](CC(C)C)C(N)=O)[C@@H](C)O", "note": "[ANOPLIN] (H-GLLKRIKTLL-NH2)", "values": [{"measurement": "MHC10", "setting": "[1]", "result": ">= 512 uM"}, {"measurement": "MIC", "setting": "[2]", "result": 128, "unit": "µM"}, {"measurement": "Activity", "setting": "[3]", "result": "Active"}, {"measurement": "Activity", "setting": "[4]", "result": "Active"}, {"measurement": "FIC", "setting": "[5]", "result": 0.5625}, {"measurement": "Time", "setting": "[6]", "result": 12.14, "unit": "min"}, {"measurement": "selectivity ratio", "setting": "[7]", "result": 6.73}, {"measurement": "MIC", "setting": "[8]", "result": 16, "unit": "µM"}, {"measurement": "Activity", "setting": "[9]", "result": "Tde"}, {"measurement": "Activity", "setting": "[10]", "result": "inactive"}, {"measurement": "MIC", "setting": "[11]", "result": 76.1, "unit": "µM"}, {"measurement": "MIC", "setting": "[12]", "result": "≥ 512", "unit": "µM"}, {"measurement": "MIC", "setting": "[13]", "result": "≥ 512", "unit": "µM"}, {"measurement": "IC50", "setting": "[14]", "result": "≥ 512", "unit": "µM"}, {"measurement": "Activity", "setting": "[15]", "result": "Tde"}, {"measurement": "Activity", "setting": "[16]", "result": "Active"}, {"measurement": "MIC", "setting": "[17]", "result": 8, "unit": "µM"}, {"measurement": "Activity", "setting": "[18]", "result": "inactive"}, {"measurement": "MIC", "setting": "[19]", "result": 8, "unit": "µM"}, {"measurement": "MIC", "setting": "[20]", "result": 256, "unit": "µM"}, {"measurement": "half-life", "setting": "[21]", "result": 2.24, "unit": "h"}, {"measurement": "selectivity ratio", "setting": "[22]", "result": 5.66}, {"measurement": "Activity", "setting": "[23]", "result": "Active"}, {"measurement": "MIC", "setting": "[24]", "result": 64, "unit": "µM"}, {"measurement": "selectivity ratio at 18 h", "setting": "[25]", "result": 8}, {"measurement": "Activity", "setting": "[26]", "result": "inactive"}, {"measurement": "selectivity ratio", "setting": "[27]", "result": 6.73}, {"measurement": "Activity", "setting": "[28]", "result": "Active"}, {"measurement": "Activity", "setting": "[29]", "result": "Active"}, {"measurement": "MIC", "setting": "[30]", "result": 128, "unit": "µM"}, {"measurement": "Activity", "setting": "[31]", "result": "inactive"}, {"measurement": "MIC", "setting": "[32]", "result": 90.5, "unit": "µM"}, {"measurement": "Activity", "setting": "[33]", "result": "Active"}, {"measurement": "MIC", "setting": "[34]", "result": 76.1, "unit": "µM"}, {"measurement": "Activity", "setting": "[35]", "result": "inactive"}, {"measurement": "Activity", "setting": "[36]", "result": "inactive"}]}
{"smiles": "CO[C@H]1/C=C/O[C@@]2(C)Oc3c(C)c(O)c4c(O)c(c(/C=N/N5CCN(C)CC5)c(O)c4c3C2=O)NC(=O)/C(C)=C\\C=C\\[C@H](C)[C@H](O)[C@@H](C)[C@@H](O)[C@@H](C)[C@H](OC(C)=O)[C@@H]1C", "note": "[RIFAMPIN]", "values": [{"measurement": "MIC", "setting": "[2]", "result": 4, "unit": "µM"}, {"measurement": "MIC", "setting": "[8]", "result": "< 1", "unit": "µM"}, {"measurement": "MIC", "setting": "[37]", "result": 2, "unit": "µM"}, {"measurement": "MIC", "setting": "[12]", "result": "< 1", "unit": "µM"}, {"measurement": "MIC", "setting": "[38]", "result": 2050, "unit": "µM"}, {"measurement": "MIC", "setting": "[13]", "result": "< 1", "unit": "µM"}, {"measurement": "MIC", "setting": "[17]", "result": 4, "unit": "µM"}, {"measurement": "MIC", "setting": "[19]", "result": "< 1", "unit": "µM"}, {"measurement": "fold change (FC)", "setting": "[39]", "result": 128}, {"measurement": "MIC", "setting": "[20]", "result": "< 1", "unit": "µM"}, {"measurement": "MIC", "setting": "[40]", "result": 2050, "unit": "µM"}, {"measurement": "MIC", "setting": "[41]", "result": 32, "unit": "µM"}, {"measurement": "MIC", "setting": "[30]", "result": 32, "unit": "µM"}]}
